Measured values reported in ChEMBL document CHEMBL1955855, “A domino Knoevenagel hetero-Diels-Alder reaction for the synthesis of polycyclic chromene derivatives and evaluation of their cytotoxicity” (Bioorg Med Chem Lett, 2012).

Tests used:
A549 = test: Cytotoxicity against human A549 cells after 72 hrs by MTT assay; format: functional, cell-based
B16 = test: Cytotoxicity against mouse B16 cells after 72 hrs by MTT assay; format: functional, cell-based
[1] = Mus musculus, B16, 72 h, read-out: IC50
[2] = Homo sapiens, A549, 72 h, read-out: IC50

Row | Compound | IC50 (A549; a549) | IC50 (B16; [1]) [µM] | IC50 (A549; [2]) [µM] | IC50 (B16; b16)
1 | Cn1c2c(c(=O)n(C)c1=O)[C@H]1C3=Cc4cc(Cl)ccc4O[C@@]3(C)CC[C@H]1C(C)(C)O2 (relative stereo) | Not Active | 7.69 |  | 
2 | CC1(C)OC2=C(C(=O)CCC2)[C@H]2C3=Cc4ccccc4O[C@@]3(C)CC[C@H]21 (relative stereo) |  | 12.8 | 20.8 | 
3 | CC1(C)OC2=C(C(=O)c3ccccc32)[C@H]2C3=Cc4cc(Cl)ccc4O[C@@]3(C)CC[C@H]21 |  |  | 26.3 | Not Active
4 | CC1(C)OC2=C(C(=O)CCC2)[C@H]2C3=Cc4cc(Cl)ccc4O[C@@]3(C)CC[C@H]21 (relative stereo) |  | 2 | 4.01 | 
5 | CC1(C)Oc2c(c(=O)oc3ccccc23)[C@H]2C3=Cc4ccccc4O[C@@]3(C)CC[C@H]21 (relative stereo) |  | 35.7 | 9.58 | 
6 | COc1cccc2c1C(=O)c1c(O)c3c(c(O)c1C2=O)C[C@@](O)(C(=O)CO)C[C@@H]3O[C@H]1C[C@H](N)[C@H](O)[C@H](C)O1 [DOXORUBICIN] |  | < 0.1 | < 0.1 | 
7 | Cn1c2c(c(=O)n(C)c1=O)[C@H]1C3=Cc4ccccc4O[C@@]3(C)CC[C@H]1C(C)(C)O2 (relative stereo) |  | 8.47 | 3.8 | 
8 | CC1(C)Oc2c(c(=O)oc3ccccc23)[C@H]2C3=Cc4cc(Cl)ccc4O[C@@]3(C)CC[C@H]21 (relative stereo) |  | 20.4 | 0.26 | 
9 | CC1(C)OC2=C(C(=O)CCC2)[C@H]2C3=Cc4cc(Br)ccc4O[C@@]3(C)CC[C@H]21 (relative stereo) |  | 16.5 | 19.7 | 
10 | CC1(C)CC(=O)C2=C(C1)OC(C)(C)[C@@H]1CC[C@]3(C)Oc4ccc(Br)cc4C=C3[C@H]21 (relative stereo) |  | 12.5 | 6.13 | 
11 | CC1(C)CC(=O)C2=C(C1)OC(C)(C)[C@@H]1CC[C@]3(C)Oc4ccccc4C=C3[C@H]21 (relative stereo) |  | 10.2 | 8.64 | 
